Results reported in patent US12157730B2, “Heteroaryl derivative, method for producing same, and pharmaceutical composition comprising same as effective component” (VORONOI INC., priority 2019, dated 2024).

Biological target: T1, Ba/F3 cell EGFR Exon20 ins NPH (Homo sapiens, UniProt P00533, INS773NPH)
T1 construct: expressed in transfected cells; host or cells: Ba/F3
Experiment: Ba/F3 cell proliferation suppression, EGFR Exon20 ins NPH
Assay type: cell-based
Conditions: GI50 class; Ba/F3 cell line with NPH inserted at Exon20 of EGFR; 72 hours
Summary of the method: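 72 h compound exposure, 0.3 nM–50 um (12 points, 3:1 dilution in DMSO); viability by CellTiter-Glo luminescence. Ba/F3 medium: RPMI-1640, 10% FBS, 5 ng/ml IL-3, 1 ug/ml puromycin for transduced cells. GI50 vs control, n=3.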

Row | Ba/F3 (NPH) Activity | Structure (SMILES)
1 | A (GI50 < 50 nM) | C=CC(=O)Nc1cc(Nc2cc(N3OCC[C@@H]3c3ccc(F)c(Cl)c3)ncn2)c(OC)cc1N1CCC(N2C[C@@H](C)N(CC)[C@@H](C)C2)CC1 [compound 370, N-(5-((6-((R)-3-(3-chloro-4-fluorophenyl)isoxazolidine-2-yl)pyrimidine-4-yl)amino)-2-(4-((3S,5R)-4-ethyl-3,5-dimethylpiperazine-1-yl)piperidine-1-yl)-4-methoxyphenyl) acrylamide]
2 | A (GI50 < 50 nM) | C=CC(=O)Nc1cc(Nc2cc(N3OCC[C@@H]3Cc3cccc(Cl)c3Cl)ncn2)c(OC)cc1N1CCC(N2CCN(C3CC3)[C@@H](C)C2)CC1 [compound 981, N-(2-(4-((S)-4-cyclopropyl-3-methylpiperazine-1-yl)piperidine-1-yl)-5-((6-((S)-3-(2,3-dichlorobenzyl)isoxazolidine-2-yl)pyrimidine-4-yl)amino)-4-methoxyphenyl) acrylamide]
3 | A (GI50 < 50 nM) | C=CC(=O)Nc1cc(Nc2cc(N3OCC[C@@H]3c3ccc(F)c(Cl)c3F)ncn2)c(OC)cc1N1CCC(N2CCN(C3COC3)CC2)CC1 [Example 202, N-(5-((6-((R)-3-(3-chloro-2,4-difluorophenyl)isoxazolidine-2-yl)pyrimidine-4-yl)amino)-4-methoxy-2-(4-(4-(oxetane-3-yl)piperazine-1-yl)piperidine-1-yl)phenyl)acrylamide]

More lines, now with the values behind:

Row | Structure (SMILES) | Ba/F3 (NPH) Activity
4 | C=CC(=O)Nc1cc(Nc2cc(N3OCC[C@@H]3c3cccc(F)c3)ncn2)c(OC)cc1N1CCC(N(C)C)CC1 [Example 245, N-(2-(4-(dimethylamino)piperidine-1-yl)-5-((6-((R)-3-(3-fluorophenyl)isoxazolidine-2-yl)pyrimidine-4-yl)amino)-4-methoxyphenyl) acrylamide] | A (GI50 < 50 nM)
5 | C=CC(=O)Nc1cc(Nc2cc(N3OCC[C@@H]3c3ccc(Cl)c(Cl)c3)ncn2)c(OC)cc1N1CCN(C2CCN(C)CC2)CC1 [compound 685, N-(5-((6-((R)-3-(3,4-dichlorophenyl)isoxazolidine-2-yl)pyrimidine-4-yl)amino)-4-methoxy-2-(4-(1-methylpiperidine-4-yl)piperazine-1-yl)phenyl) acrylamide] | A (GI50 < 50 nM)
6 | C=CC(=O)Nc1cc(Nc2cc(N3OCC[C@@H]3c3cccc(C#N)c3)ncn2)c(OC)cc1N1CCC(N(C)C)CC1 [compound 394, N-(5-((6-((R)-3-(3-cyanophenyl)isoxazolidine-2-yl)pyrimidine-4-yl)amino)-2-(4-(dimethylamino)piperidine-1-yl)-4-methoxyphenyl) acrylamide] | A (GI50 < 50 nM)
7 | C=CC(=O)Nc1cc(Nc2cc(N3OCC[C@@H]3c3ccc(Cl)cc3F)ncn2)c(OC)cc1N1CCC(N2C[C@@H](C)O[C@@H](C)C2)CC1 [compound 374, N-(5-((6-((R)-3-(4-chloro-2-fluorophenyl)isoxazolidine-2-yl)pyrimidine-4-yl)amino)-2-(4-((2S,6R)-2,6-dimethylmorpholino)piperidine-1-yl)-4-methoxyphenyl) acrylamide] | A (GI50 < 50 nM)
8 | C=CC(=O)Nc1cc(Nc2cc(N3OCC[C@@H]3c3cccc(Cl)c3Cl)ncn2)c(OC)cc1N1CCC(N2CCN(C(C)C)CC2)CC1 [compound 609, N-(5-((6-((R)-3-(2,3-dichlorophenyl)isoxazolidine-2-yl)pyrimidine-4-yl)amino)-2-(4-(4-isopropylpiperazine-1-yl)piperidine-1-yl)-4-methoxyphenyl) acrylamide] | A (GI50 < 50 nM)
9 | C=CC(=O)Nc1cc(Nc2cc(N3OCC[C@@H]3c3ccc(Cl)cc3)ncn2)c(OC)cc1N1CCC(N2CCN(C3CC3)CC2)CC1 [Example 58, N-(5-((6-((R)-3-(4-chlorophenyl)isoxazolidine-2-yl)pyrimidine-4-yl)amino)-2-(4-(4-cyclopropylpiperazine-1-yl)piperidine-1-yl)-4-methoxyphenyl) acrylamide] | A (GI50 < 50 nM)
